Data from patent US20200113902A1, “COMPOSITIONS AND METHODS FOR TREATING CANCERS WITH COVALENT INHIBITORS OF CYCLIN-DEPENDENT KINASE 7 (CDK7)” (Syros Pharmaceuticals, Inc., priority 2017, published 2020).

Legend:
[1] = test system: BR5023 xenografts; test: TNBC patient-derived xenograft BR5023, tumor volume; format: in vivo, mouse; details: 40 mg/kg or 30 mg/kg i.v. BIW
Procedure: Patient-derived xenograft (PDX) models from TNBC patients (BR5010, BR5013, BR5015, and BR5023) were established in NOD-SCID mice at Crown Bioscience (San Diego, USA). Cryo vials containing tumor cells were thawed and prepared for injection into mice. Cells were washed in PBS, counted, and resuspended in cold PBS at a concentration of 50,000-100,000 viable cells/100 ul. Cell suspensions were mixed with an equal volume of Cultrex ECM and kept on ice during transport to the vivarium. Cells were prepared for injections by withdrawing ECM-Cell mixture into a chilled slip-tip syringe fitted with a 26G 7/8 (0.5 mm×22 mm) needle. The filled syringes were kept on ice to avoid the solidification of ECM. Each mouse was inoculated subcutaneously in the right flank with 200 uL of the cell suspension. Tumor sizes were measured in two dimensions using a caliper, and the volumes were expressed in mm^3 using the formula: V=0.5 a×b^2, where a and b are the longest and shortest diameters of the tumor, respectively. Compound 1 treatment was started when the average tumor size reached 150-200 mm^3.
Compound 1 was formulated in w/v 20% Captisol (pH 4-6) and administered by i.v. twice weekly (BIW) at a final dose of 40 mg/kg or 30 mg/kg in a 10 ml/kg volume. Tumor volumes were measured twice weekly over the course of the study. […]

[2] = test system: MCL1 protein in HCC70 xenograft tumor; test: HCC70 xenograft tumor, Western blot; format: in vivo; details: HCC70 xenograft mouse; single dose of 40 mg/kg
Procedure: (§1) Cytotoxic cancer cell lines HCC70 and TOV21G, and cytostatic cancer cell lines T47D and COV318 were seeded in wells of a six-well dish at a density of 1×10^6 cells/well and allowed to adhere overnight. Cells were then treated with 50 nM of Compound 1 for 16 or 24 hours, or with DMSO (0 hours) representing a negative control. Cells were harvested and placed on ice, and resuspended in RIPA lysis buffer supplemented with protease and phosphatase inhibitors. Clarified lysates prepared with 4×LSD running buffer and boiled at 95° C. for 5 minutes. Equivalent amounts of sample (10 μg total protein) were run on a 4-12% Bis-Tris gel and transferred to a PDVF membrane for Western blotting using standard Western blotting protocols. Membranes were blocked with Licor TBS blocking buffer then probed with antibodies for BCL-XL, BCL-2, MCL1, BID, and GAPDH visualized using and Odyssey imager (FIGS. 23A and 23D).
Subcutaneous HCC70 xenografts were established in BALC/c nude mice at ChemPartner (Shanghai, China). Each mouse was inoculated subcutaneously in the right flank with 5×10^6 HCC70 cells (ATCC, CAT #: CRL-2315) in 0.2 ml of a 1:1 mixture of base medium and Matrigel. Tumor sizes were measured in two dimensions using a caliper, and the volumes were expressed in mm^3 using the formula: V=0.5 a×b^2 where a and b are the longest and shortest diameters of the tumor, respectively. […]

[3] = test system: MCL1 protein in MDAMB468 cells; test: Western blot of BCL2 family proteins, MDAMB468; format: cell-based, human; details: 50 nM or 100 nM, 24 hours
Procedure: as §1
(§2) In a similar experiment, TNBC breast cancer cell lines HCC70, MDAMB468, MDAMB453 and CAL-120 were grown as described above and treated with DMSO, 50 nM Compound 1 or 100 nM Compound 1 for 24 hours. Protein samples were prepared as described above for Western blotting using antibodies specific for the indicated proteins in FIG. 29A. […]

[4] = test system: MCL1 protein in MV411 cells; test: Western blot, AML cell line MV411; format: cell-based; details: 50 nM
Procedure: as §1
We next explored the expression of MCL1, BCL-XL and BCL2 in four different AML cell lines. MV411, OCI-AML3 and KG1 cells were separately grown and prepared as described in Example 2 for Western blotting, using antibodies specific for BCL2 (FIG. 24A), BCL-XL, MCL-1 and tubulin as an internal control (FIG. 24B).

[5] = test system: MCL1 protein in HCC70 cells; test: Western blot of BCL2 family proteins, HCC70; format: cell-based, human; details: 50 nM or 100 nM, 24 hours
Procedure: as §1, §2

[6] = test system: Rad51, CHEK1 and CHEK2 mRNA in MDA-MB-468, MDA-MB-231, Ca1120 and MDA-MB-453; test: Quantitative PCR of DNA damage repair genes, breast cancer cell lines; format: cell-based; details: 50 nM, 6 hrs
Procedure: Breast cancer cell lines MDA-MB-468, MDA-MB-231, Ca1120 and MDA-MB-453 were plated at 200,000 cells/well in a 6-well plate the day before treatment. The next day the cells were treated with vehicle, 50 nM Compound 1 or 50 nM Paclitaxel for 6 hrs, after which cells were harvested and total RNA collected using RNeasy mini kit (Qiagen). Total RNA (500 ng) was reverse transcribed using Quantitect Reverse Transcription kit (Qiagen). Quantitative PCR for each of Rad51, CHEK1 and CHEK2 was performed on QuantStudio 6 Flex (Applied Biosystems) using Power SYBR green PCR master mix (Thermo Fisher Scientific) and primers specific for each of those genes. The change in gene expression, relative to housekeeping gene RPL27, was quantified using DDCt method.

CN(C)C/C=C/C(=O)Nc1ccc(C(=O)N[C@@]2(C)CCC[C@@H](Nc3ncc(Cl)c(-c4c[nH]c5ccccc45)n3)C2)nc1 [Compound 1, N-((1S,3R)-3-(5-chloro-4-(1H-indol-3-yl)pyrimidin-2-ylamino)-1-methylcyclohexyl)-5-((E)-4-(dimethylamino)but-2-enamido)picolinamide]
Tumor growth vs untreated historical samples [1]: little inhibitory effect on tumor growth | MCL1 protein expression in tumor (Western blot) [2]: reduced MCL1 protein expression | MCL1 protein level (Western blot) [3]: downregulated | MCL1 protein level (Western blot) [4]: significant reduction in MCL1 | MCL1 protein level (Western blot) [5]: downregulated | mRNA expression from genes involved in DNA repair (Rad51, CHEK1, CHEK2) [6]: Downregulation
